# Laboratory results taken from patent US9567329B2, “High penetration prodrug compositions of 1H-imidazo[4,5-c]quinolin-4-amines and 1H-imidazo[4,5-c]quinolin-4-amine-related compounds and uses thereof” (Techfields Pharma Co., Ltd, priority 2007, dated 2017).
# How the values were obtained:
# [1] = Conversion of HPPs to parent drugs in human plasma (half life); assay type: in vitro ADME; conditions: 37° C.
# Description: HPPs of 1H-imidazo[4,5-c]quinolin-4-amines or 1H-imidazo[4,5-c]quinolin-4-amine-related compounds converted to the parent 1H-imidazo[4,5-c]quinolin-4-amines or 1H-imidazo[4,5-c]quinolin-4-amine-related compounds quickly in good yield in human plasma.
# A HPP of 1H-imidazo[4,5-c]quinolin-4-amines or 1H-imidazo[4,5-c]quinolin-4-amine-related compound (0.05 mg) was dissolved in 0.1 ml of 0.2M pH 7.4 phosphate buffer. 1 ml of human plasma, preheated to 37° C., was added into the mixture. The mixture was kept in a water bath at 37° C., and at every 10 min intervals 0.2 ml of samples were withdrawn and added to 0.4 ml of methanol to precipitate the plasma protein. The samples were centrifuged for 5 min and analyzed by HPLC.
# [2] = Irritative effect or discomfort on skin of nude mice after topical application; assay type: in vivo; conditions: 0.1 ml of 3% in pH 7.4 phosphate buffer, back of nude mice, twice per day, 1 week
# Description: Irritative effect or discomfort in the skin of mice of HPPs of 1H-imidazo[4,5-c]quinolin-4-amines or 1H-imidazo[4,5-c]quinolin-4-amine-related compounds was evaluated during a period of 1 week after the topical application of 0.1 ml of 3% of the respective test drug in pH 7.4 phosphate buffer (0.2 M) to the back of nude mice twice per day.
# [3] = In vitro penetration rate across human skin in modified Franz cells; assay type: in vitro ADME; conditions: for In vitro Penetration Rate of HPPs (apparent flux): 3% solution in ethanol/pH 7.4 phosphate buffer (0.2 M) 70/30
# Description: Penetration rates of HPPs and their parent drugs through human skin were measured in vitro by modified Franz cells. A Franz cell had two chambers, the top sample chamber and the bottom receiving chamber. The human skin tissue (360-400 μm thick) that separated the top and the receiving chambers was isolated from the anterior or posterior thigh areas.
# A compound tested (0.5 mL, 3% in a mixture of ethanol and phosphate buffer (0.2M, pH 7.4) (v/v, 70/30)) was added to the sample chamber of a Franz cell. The receiving chamber contains 2 ml of 2% bovine serum albumin in saline which was stirred at 600 rpm. The amount of the tested compound penetrating the skin was determined by high-performance liquid chromatography (HPLC) method.
# The lowest detectable apparent flux values in this method was 1 μg/cm^2/h.
# [4] = test system: Human breast cancer cells (BCAP-37); assay: Antitumor activity, breast cancer xenograft, topical treatment from day 1; conditions: 50 μl of 3% topically once per day from day 1; after 28 days
# From the text: Human breast cancer cells (BCAP-37, 4-5 mm^3 of tumor tissue was used in each mouse) were subcutaneous xenografted into nude mice (BALB).
# [5] = test system: herpes simplex virus Type II; assay: Anti-Herpes activity, treated for 3 days before HSV infection; assay type: in vivo; conditions: guinea pigs
# Description: (§1) The evaluation of anti-Herpes activity of these prodrugs was carried out using the method described by Kern, et al. [Antimicrob. Agents Chemother. 14, 817, (1978)]. In each experiment, female guinea pigs (n=10) were anesthetized. […] Virus replication was monitored by determining the amount of virus recovered with vaginal swabs taken on day 7 after infection. […] The percent Lesion Inhibition was calculated as follows: 100-[(Sum of maximum lesion scores of treated group divided by the Sum of the scores of infected control)×100] (Table 5).
# [6] = test system: herpes simplex virus Type I; assay: as above; assay type: in vivo; conditions: guinea pigs
# Description: as §1
# [7] = test system: herpes simplex virus Type II; assay: Anti-Herpes activity, treated for 5 days, first treatment just after HSV infection; assay type: in vivo; conditions: guinea pigs
# Description: (§2) The evaluation of anti-Herpes activity of these prodrugs was carried out using the method described by Kern, et al. [Antimicrob. Agents Chemother. 14, 817, (1978)].
# (§3) In the second experiment, female guinea pigs (n=10) were anesthetized. Herpes simplex virus (Type I or Type II, about 10^5 plaque forming units were used) was applied intravaginally to the guinea pigs using a cotton swab. […] Virus replication was monitored by determining the amount of virus recovered with vaginal swabs taken on day 7 after infection. External lesions were scored daily for ten days using the following scale: 0, no lesion; 1, redness and swelling; 2, a few small vesicles; 3, several large vesicles; 4, large ulcers and necrosis; and 5, paralysis. The percent Lesion Inhibition was calculated as follows: 100−[(Sum of maximum lesion scores of treated group divided by the Sum of the scores of infected control)×100] (Table 6).
# [8] = test system: herpes simplex virus Type I; assay: as above; assay type: in vivo; conditions: guinea pigs
# Description: as §2, §3
# interferon production [9] = assay: Interferon inducing activity in guinea pigs (serum protection of fibroblasts from mengovirus); assay type: in vivo; conditions: serum 18 hours after treatment
# Description: Without being bound by any mechanism, the ability to induce interferon production of the pro-drugs of the invention was evaluated in guinea pigs (n=10). Untreated guinea pigs provided controls.
# Each test drug was administered to real back skin of a guinea pig at a specific dose of about 0.5-4.5 mg/kg respectively.
# Each treated and control guinea pig was bled 18 hours after drug treatment and its serum was assayed for interferon activity. The serum was diluted and incubated with guinea pig fibroblast cells at 37° C. overnight in 96 well microtiter plates. The incubated cells were then challenged with an inoculum of mengovirus that was sufficient to kill untreated cells in two days. Two days after such challenge, the cells were examined both microscopically and after staining with crystal violet to determine whether the cells remained intact.
# Table 4 contains the results of the study with activity/ml indicating the highest dilute on of serum that protected cells from virus challenge. Untreated guinea pigs provided controls.
# [10] = test system: herpes simplex virus Type II; assay: Anti-Herpes activity, treated for 5 days, first treatment 5 days after HSV infection; assay type: in vivo; conditions: guinea pigs
# Description: as §2
# (§4) In the third experiment, female guinea pigs (n=10) were anesthetized. The guinea pigs were then infected with herpes simplex virus (type I or Type II, about 10^5 plaque forming units were used) intravaginally using a cotton swab. […] External lesions were scored daily for ten days using the following scale: 0, no lesion; 1, redness and swelling; 2, a few small vesicles; 3, several large vesicles; 4, large ulcers and necrosis; and 5, paralysis. The percent Lesion Inhibition was calculated as follows: 100−[(Sum of maximum lesion scores of treated group divided by the Sum of the scores of infected control)×100] (Table 7).
# [11] = test system: herpes simplex virus Type I; assay: as above; assay type: in vivo; conditions: guinea pigs
# Description: as §2, §4
# interferon production [12] = assay: Interferon inducing activity in guinea pigs (serum protection of fibroblasts from mengovirus); assay type: in vivo; conditions: serum 18 hours after treatment; remark: listed apart in the source
# [13] = test system: Human breast cancer cells (BCAP-37)
# From the text: Human breast cancer cells (BCAP-37, 3-4 mm^3 of tumor tissue was used in each mouse) were subcutaneously xenografted into nude mice (BALB).
# [14] = test system: Human colon cancer cells (LS174J); assay: Antitumor activity, colon cancer xenograft, topical treatment from day 1; conditions: 50 μl of 3% topically twice per day from day 1; after 28 days
# From the text: Human colon cancer cells (LS174J, 4-5 mm^3 of tumor tissue was used in each mouse) were subcutaneously xenografted into nude mice (BALB).
# [15] = 0.5 mg/kg once per day for 3 days before HSV infection
# [16] = 1.5 mg/kg once per day for 3 days before HSV infection
# [17] = 4.5 mg/kg once per day for 3 days before HSV infection
# [18] = 0.5 mg/kg once per day for 5 days
# [19] = 1.5 mg/kg once per day for 5 days
# [20] = 4.5 mg/kg once per day for 5 days
# [21] = at day 42, treatment from day 21 (tumors 13±2 mm×12±3 mm), 50 μl of 3% topically once per day
molecule,measurement,setting,value
"CCCCn1cnc2c(NC(=O)CNC)nc3ccccc3c21.Cl [sarcosine 1-butyl-1H-imidazo[4,5-c]quinolin-4-amide hydrochloride]",Half life of HPPs in plasma,[1],25 ± 2 min
same,signs of irritative effect or discomfort in the skin,[2],None of any signs of irritative effect or discomfort was observed
same,In vitro Penetration Rate of HPPs (apparent flux),[3],0.13 mg/cm^2/h
"CC(C)Cn1cnc2c(N)nc3ccccc3c21.Cl [1-isobutyl-1H-imidazo[4,5-c]quinolin-4-amine hydrochloride, reference compound]","Tumor size, Human breast cancer, first dimension",[4],12 ± 2 mm ×
same,"Tumor size, Human breast cancer, second dimension",[4],11 ± 2 mm
same,"tumor incidence, human breast cancer",[4],100%
same,"% Lesion inhibition of the parent drug, intravaginal, Herpes type II",[5]; [15],5%
same,"% Lesion inhibition of the parent drug, transdermal, Herpes type II",[5]; [15],2%
same,"% Lesion inhibition of the parent drug, intravaginal, Herpes type II",[5]; [16],28%
same,"% Lesion inhibition of the parent drug, transdermal, Herpes type II",[5]; [16],2%
same,"% Lesion inhibition of the parent drug, intravaginal, Herpes type II",[5]; [17],87%
same,"% Lesion inhibition of the parent drug, transdermal, Herpes type II",[5]; [17],48%
same,"% Lesion inhibition of the parent drug, intravaginal, Herpes type I",[6]; [15],4%
same,"% Lesion inhibition of the parent drug, transdermal, Herpes type I",[6]; [15],2%
same,"% Lesion inhibition of the parent drug, intravaginal, Herpes type I",[6]; [16],23%
same,"% Lesion inhibition of the parent drug, transdermal, Herpes type I",[6]; [16],3%
same,"% Lesion inhibition of the parent drug, intravaginal, Herpes type I",[6]; [17],85%
same,"% Lesion inhibition of the parent drug, transdermal, Herpes type I",[6]; [17],45%
same,"% Lesion inhibition of the parent drug, intravaginal, Herpes type II",[7]; [18],2%
same,"% Lesion inhibition of the parent drug, transdermal, Herpes type II",[7]; [18],2%
same,"% Lesion inhibition of the parent drug, intravaginal, Herpes type II",[7]; [19],21%
same,"% Lesion inhibition of the parent drug, transdermal, Herpes type II",[7]; [19],6%
same,"% Lesion inhibition of the parent drug, intravaginal, Herpes type II",[7]; [20],82%
same,"% Lesion inhibition of the parent drug, transdermal, Herpes type II",[7]; [20],54%
same,"% Lesion inhibition of the parent drug, intravaginal, Herpes type I",[8]; [18],2%
same,"% Lesion inhibition of the parent drug, transdermal, Herpes type I",[8]; [18],2%
same,"% Lesion inhibition of the parent drug, intravaginal, Herpes type I",[8]; [19],17%
same,"% Lesion inhibition of the parent drug, transdermal, Herpes type I",[8]; [19],7%
same,"% Lesion inhibition of the parent drug, intravaginal, Herpes type I",[8]; [20],78%
same,"% Lesion inhibition of the parent drug, transdermal, Herpes type I",[8]; [20],52%
same,"Interferon level of the parent drug, transdermal",interferon production [9]; 0.5 mg/kg once,198 activity/ml
same,"Interferon level of the parent drug, transdermal",interferon production [9]; 1.5 mg/kg once,776 activity/ml
same,"Interferon level of the parent drug, transdermal",interferon production [9]; 4.5 mg/kg once,"2,785 activity/ml"
same,"% Lesion inhibition of the parent drug, intravaginal, Herpes type II",[10]; [18],2%
same,"% Lesion inhibition of the parent drug, transdermal, Herpes type II",[10]; [18],2%
same,"% Lesion inhibition of the parent drug, intravaginal, Herpes type II",[10]; [19],2%
same,"% Lesion inhibition of the parent drug, transdermal, Herpes type II",[10]; [19],2%
same,"% Lesion inhibition of the parent drug, intravaginal, Herpes type II",[10]; [20],44%
same,"% Lesion inhibition of the parent drug, transdermal, Herpes type II",[10]; [20],24%
same,"% Lesion inhibition of the parent drug, intravaginal, Herpes type I",[11]; [18],2%
same,"% Lesion inhibition of the parent drug, transdermal, Herpes type I",[11]; [18],2%
same,"% Lesion inhibition of the parent drug, intravaginal, Herpes type I",[11]; [19],2%
same,"% Lesion inhibition of the parent drug, transdermal, Herpes type I",[11]; [19],2%
same,"% Lesion inhibition of the parent drug, intravaginal, Herpes type I",[11]; [20],37%
same,"% Lesion inhibition of the parent drug, transdermal, Herpes type I",[11]; [20],22%
same,"Interferon level of the parent drug, intravaginal",interferon production [12]; 0.5 mg/kg once,385 activity/ml
same,"Interferon level of the parent drug, intravaginal",interferon production [12]; 1.5 mg/kg once,"2,982 activity/ml"
same,"Interferon level of the parent drug, intravaginal",interferon production [12]; 4.5 mg/kg once,"28,982 activity/ml"
same,"tumor size, first dimension",[13]; [21],17±2 mm
same,"tumor size, second dimension",[13]; [21],15±2 mm
same,death of mice,"[13]; up to day 70, 50 μl of 3% topically once per day from day 21",all mice died by day 70
same,"Tumor size, Human colon cancer, first dimension",[14],17 ± 2 mm ×
same,"Tumor size, Human colon cancer, second dimension",[14],15 ± 2 mm
same,"tumor incidence, human colon cancer",[14],100%
same,In vitro Penetration Rate of Parent compounds (apparent flux),[3]; 3% suspension in ethanol/pH 7.4 phosphate buffer (0.2 M) 70/30,0.005 mg/cm^2/h
"sarcosine 1-benzyl-1H-imidazo[4,5-c]quinolin-4-amide hydrochloride",Half life of HPPs in plasma,[1],29 ± 1 min
same,signs of irritative effect or discomfort in the skin,[2],None of any signs of irritative effect or discomfort was observed
same,In vitro Penetration Rate of HPPs (apparent flux),[3],0.16 mg/cm^2/h
